Measured values reported in patent US6359010B1, “Methods of treating anxiety and mood disorders with oleamide” (priority 1999, dated 2002).
Like-named read-outs stand apart in the source and are kept apart here.

Legend:
[1] = tested on: rat 5-HT2 receptor; settings: oocytes expressing the rat 5-HT2 receptor, cited from earlier work
[2] = tested on: CRH mRNA in cloned hypothalamic IVB cells; experiment: CRH mRNA detection by Northern hybridization in clone IVB cells; format: cell-based, rat; settings: 0 mM to 10 mM oleamide, 20 hours incubation, densitometry normalized to 28S, vs vehicle
Procedure: (§1) Embryonic day 19 Sprague Dawley rats were humanely dissected from pregnant rats and decapitated as described by Kasckow et al. (1997). The hypothalamus was removed and sliced. Hypothalamic slices were placed in phosphate buffered saline (PBS: NaCl, 137 mM; Na2HPO4, 21 mM; KH2PO4, 29 mM; KCl, 1.2 mM; pH 7.3). Cells were dissociated for 10-15 minutes in 0.25% trypsin containing 75 units/ml of DNAse in serum-free media (SFM) consisting of a mixture of Dulbecco's modified essential medium and Ham's F-12 (1:1, v/v from Gibco) supplemented with 14 mM glucose, 15 mM NaHCO3, 5 mM Hepes and 0.05 U/ml of penicillin streptomycin (Sigma). […]
(§2) Virus producer cell line γCRE/pZIPTEX was propagated at 1×10^6 cells per 100 mm tissue culture dish in the same media used for dissociated hypothalamic cultures (SFM+7.5% fetal bovine serum). […] One cell was selected on the basis of CRH peptide production which was monitored by radioimmunoassay (described below). […]
Total RNA was isolated using the PUREscript RNA isolation kit (Gentra Systems, Minneapolis, Minn.). […] A Foto/Eclipse Imager (Fotodyne Inc., Hartland, Wis.) interfaced with Power Macintosh 8100/110 using NIH ImageQuant analysis software was utilized for densitometric quantitation of the mRNA bands.
(§3) The quantitative data obtained were expressed as mean±standard error. […]

[3] = tested on: CRH release from cloned hypothalamic IVB cells; experiment: CRH release from clone IVB cells by radioimmunoassay; format: cell-based, rat
Procedure: as §1, §2
RIA for CRH was performed according to the protocol provided by IgG Corporation (Nashville, Tenn.) utilizing the reagents provided. […] Radioactivity of the pellet was measured using a Packard Multi-Prias 4 gamma counter (Packard Instruments, Downers, Ill.).
as §3

[4] = tested on: rats; experiment: Elevated plus maze; format: in vivo, rat
Procedure: Methods for elevated plus maze testing were as follows: Based on Lister (1987), a 2 feet-4 arm radial maze consisting of 2 opposing enclosed arms (30 cm high×30 cm long×5 cm wide) and 2 opposing exposed arms (30 cm×5 cm) was constructed and was elevated on a pedestal 30 cm above the surface of a table and situated in the center of a dimly lit room. Testing was conducted in a quiet, dedicated room that was dimmed to provide 22 to 350 lux of illumination on the exposed arms of the maze and less than 1 lux within the enclosed arms. Animals were placed facing towards the enclosed arm in the center of the plus maze. […] (1992 , 1994). We assessed time in open arms and closed arms, total number of entries and rearings, based on Windle et al. (1997). All observers were blind to treatment to remove any investigator bias.

[5] = tested on: rats; settings: cited from earlier work
[6] = tested on: GABAA receptor; settings: cited from earlier work
[7] = tested on: N-methyl-D-aspartate (NDMA) receptor; settings: cited from earlier work
[8] = target: T1, 5HT3 receptor (Homo sapiens, UniProt P46098); settings: cited from earlier work
T1 sequence (P46098 24-478): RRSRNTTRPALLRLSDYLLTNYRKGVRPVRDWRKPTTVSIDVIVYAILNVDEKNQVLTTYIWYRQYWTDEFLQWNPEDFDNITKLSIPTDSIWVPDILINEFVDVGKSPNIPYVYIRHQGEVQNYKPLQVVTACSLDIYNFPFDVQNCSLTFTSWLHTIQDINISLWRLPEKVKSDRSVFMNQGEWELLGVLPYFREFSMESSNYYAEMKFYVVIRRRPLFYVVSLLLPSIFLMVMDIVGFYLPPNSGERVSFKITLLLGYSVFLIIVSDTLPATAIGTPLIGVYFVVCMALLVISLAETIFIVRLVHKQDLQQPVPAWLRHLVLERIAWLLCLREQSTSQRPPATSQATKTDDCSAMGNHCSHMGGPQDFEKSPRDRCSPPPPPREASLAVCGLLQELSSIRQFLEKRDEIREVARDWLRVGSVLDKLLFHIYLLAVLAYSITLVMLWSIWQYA

[9] = tested on: c-fos mRNA in brain areas; settings: IP, rodents, cited from earlier work
[10] = tested on: 5HT2; settings: in vivo evidence; cited from earlier work

Row | Structure (SMILES) | effect on 5-HT-elicited currents [1] | CRH mRNA (CRH synthesis) [2] | CRH mRNA (CRH synthesis) ([2]; listed as Oleamide) | immunoreactive CRH (CRH-LI) release ([3]; cloned IVB cells, 10 μM oleamide vs vehicle, n=9) | release of CRH ([3]; cloned hypothalamic IVB cells, concentration dependence) | exploratory behavior ([4]; 2 mg dose, rats approx. 250 g, n=10 per group) | total number of entries to both open and closed arm ([4]; 2 mg dose, rats, relative to vehicle, P=0.0241) | Rearings (mean) ([4]; 5 min of testing, 2 mg dose, rats, control 8.2, P=0.002) | Rearings (mean) ([4]; 10 min of testing, 2 mg dose, rats, control 15, P=0.01) | overall activity ([4]; IP dosing) | sleep latency ([5]; doses between 5 and 150 mg) | duration of induced sleep ([5]; intraperitoneal, doses between 5 and 50 mg) | direct effects on 5-HT2 receptor ([1]; without 5-HT) | effects on GABAA receptor [6] | effects on NMDA receptor [7] | effects on 5HT3 receptor [8] | activation of brain areas (transient induction of c-fos mRNA) ([9]; 1 mg/kg) | activation of brain areas (transient induction of c-fos mRNA) ([9]; 5 or 10 mg/kg) | 5HT2 function in vivo [10]
1 | CCCCCCCC/C=C\CCCCCCCC(=O)O [oleic acid, reference compound] | does not have any effect | – | – | – | – | – | – | – | – | – | – | – | – | – | – | – | – | – | –
2 | CCCCCCCC/C=C\CCCCCCCC(N)=O [oleamide, cis-9,10-octadecenoamide] | markedly potentiates | concentration-dependent manner | increased CRH mRNA | significant increase | significant concentration-dependent increases | overall increase in exploratory behavior | approximately doubled | 17.2 | 24 | decreasing overall activity | reduce sleep latency | 1 to 2.5 h | no significant direct effects | no significant effects | no significant effects | no significant effects | not | activation of multiple brain areas | indirectly potentiates
3 | CCCCCCCCCCCCCCCCCC(N)=O [octadecanamide, reference compound] | opposite those of oleamide | – | – | – | – | – | – | – | – | – | – | – | – | – | – | – | – | – | –
